The record followed here is US8022206B2 (OSI Pharmaceuticals, LLC, priority 2008, dated 2011).

The target in experiment [1] is MET (human) (Homo sapiens, UniProt P08581). Kind of experiment: MET (human) AlphaScreen kinase assay, Km of ATP. The format is biochemical. The following applies: AlphaScreen, Km of ATP; read-out: Met biochemical IC50. Put shortly:
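Human MET at lot-optimised concentration in 50 mM Tris pH 7.4 buffer with 1 mM DTT, compound at 1% DMSO final; enzyme starts the reaction, 60 min at RT.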
Background: In Alpha technology, singlet oxygen from a donor bead excites a nearby acceptor bead.

For experiment [2], the target named is RON (human) (Homo sapiens, UniProt Q04912). The experiment is described as follows: RON (human) AlphaScreen kinase assay, Km of ATP. Type of experiment: biochemical. The settings on record: AlphaScreen, Km of ATP; read-out: RON biochemical IC50. The gist of the method: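 Detection used PT66 AlphaScreen beads added in Tris pH 7.5/NaCl/EDTA/BSA buffer, read after 1 h incubation. Vehicle-only DMSO wells served as controls.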

As usually defined, the IC50 is the midpoint of a concentration-inhibition curve.

Chain of MET (human) (P08581 25-1390): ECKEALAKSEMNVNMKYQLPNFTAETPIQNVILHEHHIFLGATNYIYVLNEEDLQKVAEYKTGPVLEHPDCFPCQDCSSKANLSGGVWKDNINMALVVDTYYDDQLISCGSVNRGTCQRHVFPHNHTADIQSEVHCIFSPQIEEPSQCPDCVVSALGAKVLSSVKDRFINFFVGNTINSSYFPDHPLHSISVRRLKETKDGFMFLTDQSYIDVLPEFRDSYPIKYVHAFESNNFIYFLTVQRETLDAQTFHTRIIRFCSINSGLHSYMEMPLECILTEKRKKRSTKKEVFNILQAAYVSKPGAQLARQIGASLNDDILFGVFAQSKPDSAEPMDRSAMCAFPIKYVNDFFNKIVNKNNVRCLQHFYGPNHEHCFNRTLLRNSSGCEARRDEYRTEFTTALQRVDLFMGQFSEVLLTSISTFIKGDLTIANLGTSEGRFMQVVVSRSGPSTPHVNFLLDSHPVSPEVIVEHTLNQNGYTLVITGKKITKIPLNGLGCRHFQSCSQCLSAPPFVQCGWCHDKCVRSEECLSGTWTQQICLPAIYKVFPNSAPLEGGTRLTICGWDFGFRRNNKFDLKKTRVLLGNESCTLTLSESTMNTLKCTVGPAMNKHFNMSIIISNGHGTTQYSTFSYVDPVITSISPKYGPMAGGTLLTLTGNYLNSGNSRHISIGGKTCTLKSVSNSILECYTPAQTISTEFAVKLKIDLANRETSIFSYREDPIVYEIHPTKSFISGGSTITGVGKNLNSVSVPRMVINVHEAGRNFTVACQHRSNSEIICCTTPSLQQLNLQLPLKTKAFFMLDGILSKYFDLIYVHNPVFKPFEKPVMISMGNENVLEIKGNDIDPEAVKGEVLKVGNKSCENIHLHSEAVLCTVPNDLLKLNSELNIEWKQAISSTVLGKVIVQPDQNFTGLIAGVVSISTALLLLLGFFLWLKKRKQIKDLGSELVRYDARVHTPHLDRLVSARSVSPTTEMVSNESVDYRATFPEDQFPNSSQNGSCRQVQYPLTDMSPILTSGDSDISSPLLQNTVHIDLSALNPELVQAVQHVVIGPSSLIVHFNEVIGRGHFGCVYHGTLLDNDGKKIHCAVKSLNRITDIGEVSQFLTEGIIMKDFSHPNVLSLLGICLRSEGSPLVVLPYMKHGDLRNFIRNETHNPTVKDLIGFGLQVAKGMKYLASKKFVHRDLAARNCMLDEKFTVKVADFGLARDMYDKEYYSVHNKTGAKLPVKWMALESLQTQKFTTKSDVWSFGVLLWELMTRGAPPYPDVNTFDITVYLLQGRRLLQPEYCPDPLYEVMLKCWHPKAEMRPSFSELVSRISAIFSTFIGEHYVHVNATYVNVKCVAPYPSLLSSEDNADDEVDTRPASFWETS
Chain of RON (human) (Q04912 25-1400): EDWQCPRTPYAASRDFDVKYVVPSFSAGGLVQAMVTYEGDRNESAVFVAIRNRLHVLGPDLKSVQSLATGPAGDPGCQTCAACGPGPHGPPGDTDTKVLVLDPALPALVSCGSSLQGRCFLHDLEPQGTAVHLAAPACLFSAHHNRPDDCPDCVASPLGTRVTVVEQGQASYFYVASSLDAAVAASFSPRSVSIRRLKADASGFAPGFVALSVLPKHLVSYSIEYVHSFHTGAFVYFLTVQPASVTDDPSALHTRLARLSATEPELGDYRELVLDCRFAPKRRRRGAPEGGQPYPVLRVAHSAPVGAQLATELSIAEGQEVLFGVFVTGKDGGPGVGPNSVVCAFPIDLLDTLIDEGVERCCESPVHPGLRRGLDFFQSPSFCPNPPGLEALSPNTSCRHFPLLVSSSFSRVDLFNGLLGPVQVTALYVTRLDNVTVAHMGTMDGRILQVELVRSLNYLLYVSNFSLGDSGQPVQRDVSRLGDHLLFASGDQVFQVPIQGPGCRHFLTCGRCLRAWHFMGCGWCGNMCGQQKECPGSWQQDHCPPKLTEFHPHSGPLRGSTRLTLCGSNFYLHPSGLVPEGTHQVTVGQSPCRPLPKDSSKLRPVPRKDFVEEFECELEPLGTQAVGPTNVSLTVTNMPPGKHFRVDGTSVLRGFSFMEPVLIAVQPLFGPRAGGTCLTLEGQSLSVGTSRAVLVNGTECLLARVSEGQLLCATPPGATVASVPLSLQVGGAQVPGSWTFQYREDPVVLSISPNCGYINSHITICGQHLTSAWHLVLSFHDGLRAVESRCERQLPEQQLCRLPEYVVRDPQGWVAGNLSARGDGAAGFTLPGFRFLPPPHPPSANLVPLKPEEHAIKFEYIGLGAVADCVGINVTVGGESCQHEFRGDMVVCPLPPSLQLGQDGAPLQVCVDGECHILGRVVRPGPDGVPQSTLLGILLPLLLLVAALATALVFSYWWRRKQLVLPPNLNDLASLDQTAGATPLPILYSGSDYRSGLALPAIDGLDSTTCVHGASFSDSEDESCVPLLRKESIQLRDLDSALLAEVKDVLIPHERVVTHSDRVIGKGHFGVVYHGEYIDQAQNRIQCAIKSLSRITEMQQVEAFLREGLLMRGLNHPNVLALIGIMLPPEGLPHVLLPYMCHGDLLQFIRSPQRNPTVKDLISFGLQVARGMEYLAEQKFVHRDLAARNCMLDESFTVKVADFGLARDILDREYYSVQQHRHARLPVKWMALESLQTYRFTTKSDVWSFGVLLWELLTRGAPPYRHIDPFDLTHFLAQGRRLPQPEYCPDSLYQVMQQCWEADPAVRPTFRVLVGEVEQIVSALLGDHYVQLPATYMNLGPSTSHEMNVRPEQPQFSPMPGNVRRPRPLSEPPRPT

In the case of `C[C@@H](Oc1c(N)ncc2c(C3=CCN(/C(=N\C#N)N(C)C)CC3)coc12)c1c(Cl)ccc(F)c1Cl` [Example 196, 4-{6-Amino-7-[(R)-1-(2,6-dichloro-3-fluorophenyl)ethoxy]-furo[3,2-c]pyridin-3-yl}-N,N-cyano-N,N-dimethyl-3,6-dihydro-2H-pyridine-1-carboxamidine], the concentration for half-maximal inhibition (IC50) in experiment [1] and in experiment [2] was 0.5 to 5 µM throughout.

Take `C[C@@H](Oc1c(N)ncc2c(C(=O)NC3CCN(C(=O)OC(C)(C)C)CC3)coc12)c1c(Cl)ccc(F)c1Cl` [Example 181, 4-({6-Amino-7-[(R)-1-(2,6-dichloro-3-fluorophenyl)ethoxy]furo[3,2-c]pyridine-3-carbonyl}-amino)-piperidine-1-carboxylic acid tert-butyl ester]: the 50% inhibitory concentration (IC50) in experiment [1] was in the range of 0.5 to 5 µM; in experiment [2], 5 to 20 µM.

For the compound `C[C@@H](Oc1c(N)ncc2c(C3=CCN(C(=O)[C@H]4CCCNC4)CC3)coc12)c1c(Cl)ccc(F)c1Cl` [Example 240, (4-{6-Amino-7-[(R)-1-(2,6-dichloro-3-fluorophenyl)ethoxy]-furo[3,2-c]pyridin-3-yl}-3,6-dihydro-2H-pyridin-1-yl)-(S)-piperidin-3-ylmethanone], the IC50 in experiment [1] and in experiment [2] was less than 0.5 µM throughout.

With `CC(Oc1c(N)ncc2c(-c3cnn(C4CCNCC4)c3)coc12)c1ccc(C(N)=O)cc1` (stereo not drawn) [Example 420, 4-{1-[6-Amino-3-(1-piperidin-4-yl-1H-pyrazol-4-yl)furo[3,2-c]pyridin-7-yloxy]ethyl}benzamide], the results for the IC50 in experiment [1] and in experiment [2] were 0.5 to 5 µM and 5 to 20 µM, respectively.

Take `C[C@@H](Oc1c(N)ncc2c(C3=CCN(C(=O)Oc4ccccc4)CC3)coc12)c1c(Cl)ccc(F)c1Cl` [Example 55, 4-{6-Amino-7-[(R)-1-(2,6-dichloro-3-fluorophenyl)-ethoxy]-furo[3,2-c]pyridin-3-yl}-3,6-dihydro-2H-pyridine-1-carboxylic acid phenyl ester]: the results for the half-inhibitory concentration (IC50) in experiment [1] and in experiment [2] were less than 0.5 µM and 0.5 to 5 µM, respectively.

As to `C[C@@H](Oc1c(N)ncc2c(C3=CCN(C4CN(S(C)(=O)=O)C4)CC3)coc12)c1c(Cl)ccc(F)c1Cl` [Example 323], the IC50 in experiment [1] and in experiment [2] was 0.5 to 5 µM throughout.

In the case of `CCNC(=O)N1CCC(n2cc(-c3coc4c(O[C@H](C)c5c(Cl)ccc(F)c5Cl)c(N)ncc34)cn2)CC1` [Example 273, 4-(4-{6-Amino-7-[(1R)-1-(2,6-dichloro-3-fluorophenyl)ethoxy]furo[3,2-c]pyridin-3-yl}-1H-pyrazol-1-yl)-N-ethylpiperidine-1-carboxamide], the half-maximal inhibitory concentration (IC50) in experiment [1] and in experiment [2] was 0.5 to 5 µM throughout.

Consider `C[C@@H](Oc1c(N)ncc2c(C3=CCN(S(=O)(=O)C4CC4)CC3)coc12)c1c(Cl)ccc(F)c1Cl` [Example 48, 3-(1-Cyclopropanesulfonyl-1,2,3,6-tetrahydropyridin-4-yl)-7-[(R)-1-(2,6-dichloro-3-fluorophenyl)-ethoxy]-furo[3,2-c]pyridin-6-ylamine], for which the IC50 in experiment [1] was less than 0.5 µM; in experiment [2], 0.5 to 5 µM.

Regarding `C[C@@H](Oc1c(N)ncc2c(-c3cnn(C)c3)coc12)c1c(Cl)ccc(F)c1Cl` [Example 4, 7-[(R)-1-(2,6-Dichloro-3-fluorophenyl)-ethoxy]-3-(1-methyl-1H-pyrazol-4-yl)-furo[3,2-c]pyridin-6-ylamine], the IC50 in experiment [1] and in experiment [2] was 0.5 to 5 µM in each case.

For the compound `CC(C)OC(=O)N1CC=C(c2coc3c(O[C@H](C)c4c(Cl)ccc(F)c4Cl)c(N)ncc23)CC1` [Example 53, 4-{6-Amino-7-[(R)-1-(2,6-dichloro-3-fluorophenyl)-ethoxy]-furo[3,2-c]pyridin-3-yl}-3,6-dihydro-2H-pyridine-1-carboxylic acid isopropyl ester], the half-maximal inhibitory concentration (IC50) in experiment [1] and in experiment [2] was 0.5 to 5 µM throughout.

On to `C[C@@H](Oc1c(N)ncc2c(C3=CCN(C(=O)c4ccc[nH]4)CC3)coc12)c1c(Cl)ccc(F)c1Cl` [Example 234, (4-{6-Amino-7-[(R)-1-(2,6-dichloro-3-fluorophenyl)ethoxy]-furo[3,2-c]pyridin-3-yl}-3,6-dihydro-2H-pyridin-1-yl)-(1H-pyrrol-2-yl)-methanone], for which the IC50 in experiment [1] and in experiment [2] was 0.5 to 5 µM throughout.

Take `Nc1ncc2c(-c3cnn(C4CCNCC4)c3)coc2c1OC1CCCc2cccc(Cl)c21` (stereo not drawn) [Example 389, 7-(8-Chloro-1,2,3,4-tetrahydronaphthalen-1-yloxy)-3-(1-piperidin-4-yl-1H-pyrazol-4-yl)furo[3,2-c]pyridin-6-ylamine]: the IC50 in experiment [1] and in experiment [2] was 0.5 to 5 µM throughout.

As for `C[C@@H]1CN[C@@H](C)CN1C(=O)c1ccc(-c2coc3c(O[C@H](C)c4c(Cl)ccc(F)c4Cl)c(N)ncc23)cc1` [Example 295], the half-inhibitory concentration (IC50) in experiment [1] and in experiment [2] was 0.5 to 5 µM each time.

On to `C[C@@H](Oc1c(N)ncc2c(C3=CCN(C(=O)N4CC5CC4CO5)CC3)coc12)c1c(Cl)ccc(F)c1Cl` (stereo partly drawn) [Example 223, (4-{6-Amino-7-[(R)-1-(2,6-dichloro-3-fluorophenyl)ethoxy]-furo[3,2-c]pyridin-3-yl}-3,6-dihydro-2H-pyridin-1-yl)-(2-oxa-5-azabicyclo[2.2.1]hept-5-yl)methanone], for which the 50% inhibitory concentration (IC50) in experiment [1] and in experiment [2] was 0.5 to 5 µM in each case.

`Cn1c(Cc2ccccc2)ncc(-c2ccc(COc3c(N)ncc4c(Br)coc34)cc2)c1=O` [Example 465, 5-[4-(6-Amino-3-bromofuro[3,2-c]pyridin-7-yloxymethyl)phenyl]-2-benzyl-3-methyl-3H-pyrimidin-4-one]: the 50% inhibitory concentration (IC50) in experiment [1] lay within 0.5 to 5 µM; in experiment [2], 5 to 20 µM.

`Nc1ncc2c(-c3cnn(C4CCNCC4)c3)coc2c1OCCc1ccccc1` [Example 416, 7-Phenethyloxy-3-(1-piperidin-4-yl-1H-pyrazol-4-yl)furo[3,2-c]pyridin-6-ylamine]: the IC50 in experiment [1] and in experiment [2] was 0.5 to 5 µM throughout.

As to `CC(=O)Nc1ccc(-c2coc3c(O[C@H](C)c4c(Cl)ccc(F)c4Cl)c(N)ncc23)cn1` [Example 120, N-(5-{6-Amino-7-[(R)-1-(2,6-dichloro-3-fluorophenyl)ethoxy]furo[3,2-c]pyridin-3-yl}pyridin-2-yl)acetamide], the 50% inhibitory concentration (IC50) in experiment [1] and in experiment [2] was 0.5 to 5 µM in each case.

In the case of `C[C@@H](Oc1c(N)ncc2c(-c3ccn4ccnc4c3)coc12)c1c(Cl)ccc(F)c1Cl` [Example 82, 7-[(R)-1-(2,6-Dichloro-3-fluorophenyl)ethoxy]-3-imidazo[1,2-a]pyridin-7-ylfuro[3,2-c]pyridin-6-ylamine], the IC50 in experiment [1] was less than 0.5 µM; in experiment [2], 0.5 to 5 µM.

For `C[C@@H](Oc1c(N)ncc2c(-c3ccc(CO)s3)coc12)c1c(Cl)ccc(F)c1Cl` [Example 212, (5-{6-Amino-7-[(R)-1-(2,6-dichloro-3-fluorophenyl)ethoxy]-furo[3,2-c]pyridin-3-yl}-thiophen-2-yl)methanol], the IC50 in experiment [1] and in experiment [2] was 0.5 to 5 µM in each case.

`C[C@@H](Oc1c(N)ncc2c(C(=O)NC(C)(C)C)coc12)c1c(Cl)ccc(F)c1Cl` [Example 184, 6-Amino-7-[(R)-1-(2,6-dichloro-3-fluorophenyl)ethoxy]furo[3,2-c]pyridine-3-carboxylic acid tert-butylamide]: the values for the IC50 in experiment [1] and in experiment [2] were 0.5 to 5 µM and 5 to 20 µM, respectively.

For `C[C@@H](Oc1c(N)ncc2c(-c3ccc(C(=O)NCCN4CCCC4)cc3)coc12)c1c(Cl)ccc(F)c1Cl` [Example 101, 4-{6-Amino-7-[(R)-1-(2,6-dichloro-3-fluorophenyl)ethoxy]-furo[3,2-c]pyridin-3-yl}-N-(2-pyrrolidin-1-ylethyl)benzamide], the 50% inhibitory concentration (IC50) is less than 0.5 µM in experiment [1] and 0.5 to 5 µM in experiment [2].

For `C[C@@H](Oc1c(N)ncc2c(-c3ccc(S(C)(=O)=O)cc3)coc12)c1c(Cl)ccc(F)c1Cl` [Example 62, 7-[(R)-1-(2,6-Dichloro-3-fluorophenyl)ethoxy]-3-(4-methane-sulfonylphenyl)furo[3,2-c]pyridin-6-ylamine], the half-maximal inhibitory concentration (IC50) in experiment [1] and in experiment [2] was 0.5 to 5 µM in each case.

Regarding `C[C@@H](Oc1c(N)ncc2c(C3=CCN(C(=O)c4cnn[nH]4)CC3)coc12)c1c(Cl)ccc(F)c1Cl` [Example 230, (4-{6-Amino-7-[(R)-1-(2,6-dichloro-3-fluorophenyl)ethoxy]-furo[3,2-c]pyridin-3-yl}-3,6-dihydro-2H-pyridin-1-yl)-(3H-[1,2,3]triazol-4-yl)-methanone], the IC50 in experiment [1] and in experiment [2] was 0.5 to 5 µM throughout.

In the case of `Cc1ccnc(C)c1C(C)Oc1c(N)ncc2c(-c3cnn(C4CCNCC4)c3)coc12` (stereo not drawn) [Example 362, 7-[1-(2,4-Dimethylpyridin-3-yl)ethoxy]-3-(1-piperidin-4-yl-1H-pyrazol-4-yl)furo[3,2-c]pyridin-6-ylamine], the IC50 in experiment [1] is less than 0.5 µM; in experiment [2], 0.5 to 5 µM.

As for `COc1ncc(-c2coc3c(O[C@H](C)c4c(Cl)ccc(F)c4Cl)c(N)ncc23)cn1` [Example 93, 7-[(R)-1-(2,6-Dichloro-3-fluorophenyl)ethoxy]-3-(2-methoxypyrimidin-5-yl)furo[3,2-c]pyridin-6-ylamine], the figures for the 50% inhibitory concentration (IC50) in experiment [1] and in experiment [2] were 0.5 to 5 µM and 5 to 20 µM, respectively.

In the case of `CC(Oc1c(N)ncc2c(-c3cnn(C4CCNCC4)c3)coc12)c1ccc(Cl)cc1F` (stereo not drawn) [Example 378, 7-[1-(4-Chloro-2-fluorophenyl)ethoxy]-3-(1-piperidin-4-yl-1H-pyrazol-4-yl)furo[3,2-c]pyridin-6-ylamine], the figures for the IC50 in experiment [1] and in experiment [2] were less than 0.5 µM and 0.5 to 5 µM, respectively.

With `CC(Oc1c(N)ncc2c(-c3cnn(C4CCNCC4)c3)coc12)c1nc2ccccc2[nH]1` (stereo not drawn) [Example 403, 7-[1-(1H-Benzimidazol-2-yl)ethoxy]-3-(1-piperidin-4-yl-1H-pyrazol-4-yl)furo[3,2-c]pyridin-6-ylamine], the IC50 in experiment [1] and in experiment [2] was 0.5 to 5 µM each time.
